Patent US11697648B2, “Fused pyrimidine pyridinone compounds as JAK inhibitors” (THERAVANCE BIOPHARMA R&D IP, LLC, priority 2019, dated 2023)

How the values were obtained:
JAK1 = JAK1 (Homo sapiens (Human), UniProt P23458); assay: Biochemical JAK1 kinase assay (LanthaScreen)
Outline: (§1)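 GST-JAK + GFP-STAT1 peptide, HEPES pH 7.5/MgCl2/EGTA/Brij-35 buffer; cpd preincubation 1 h RT; ATP start, 1 h RT; stop with 10 mM EDTA + 2 nM Tb-anti-pSTAT1; TR-FRET 520/495. 4-parameter IC50 → pKi (Cheng-Prusoff).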

[1] = system: IL-2 stimulated STAT5 phosphorylation in Tall-1 human T cell line (JAK3); assay: Cellular JAK3 potency assay: inhibition of IL-2 stimulated pSTAT5 in Tall-1 T cells; format: cell-based; conditions: IL-2 stimulated pSTAT5, Tall-1 T cells
Outline: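 AlphaLISA SureFire Ultra measures STAT5 Tyr694/699 phosphorylation in lysed Tall-1 human T cells. Cells were exposed to compound for 1 h at 37 °C before a 30 min IL-2 challenge (300 ng/ml final). Values are pIC50 means with standard deviation from signal-versus-concentration curves.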

Caco-2 cell monolayers = assay: Caco-2 permeation assay; format: in vitro ADME; conditions: 5 μM, A-B direction, with Verapamil (25 μM)
Outline: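 Passive A-to-B permeability with P-gp inhibited by verapamil (25 μM); compound at 5 μM, n=2. Both compartments sampled at t0 and t120 and quantified by LC-MS/MS, giving apparent permeability in cm/sec from flux, area and concentration.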

Tyk2 = Tyk2 (Homo sapiens (Human), UniProt P29597); assay: Biochemical Tyk2 kinase assay (LanthaScreen)
Sequence of Tyk2 (P29597 whole entry): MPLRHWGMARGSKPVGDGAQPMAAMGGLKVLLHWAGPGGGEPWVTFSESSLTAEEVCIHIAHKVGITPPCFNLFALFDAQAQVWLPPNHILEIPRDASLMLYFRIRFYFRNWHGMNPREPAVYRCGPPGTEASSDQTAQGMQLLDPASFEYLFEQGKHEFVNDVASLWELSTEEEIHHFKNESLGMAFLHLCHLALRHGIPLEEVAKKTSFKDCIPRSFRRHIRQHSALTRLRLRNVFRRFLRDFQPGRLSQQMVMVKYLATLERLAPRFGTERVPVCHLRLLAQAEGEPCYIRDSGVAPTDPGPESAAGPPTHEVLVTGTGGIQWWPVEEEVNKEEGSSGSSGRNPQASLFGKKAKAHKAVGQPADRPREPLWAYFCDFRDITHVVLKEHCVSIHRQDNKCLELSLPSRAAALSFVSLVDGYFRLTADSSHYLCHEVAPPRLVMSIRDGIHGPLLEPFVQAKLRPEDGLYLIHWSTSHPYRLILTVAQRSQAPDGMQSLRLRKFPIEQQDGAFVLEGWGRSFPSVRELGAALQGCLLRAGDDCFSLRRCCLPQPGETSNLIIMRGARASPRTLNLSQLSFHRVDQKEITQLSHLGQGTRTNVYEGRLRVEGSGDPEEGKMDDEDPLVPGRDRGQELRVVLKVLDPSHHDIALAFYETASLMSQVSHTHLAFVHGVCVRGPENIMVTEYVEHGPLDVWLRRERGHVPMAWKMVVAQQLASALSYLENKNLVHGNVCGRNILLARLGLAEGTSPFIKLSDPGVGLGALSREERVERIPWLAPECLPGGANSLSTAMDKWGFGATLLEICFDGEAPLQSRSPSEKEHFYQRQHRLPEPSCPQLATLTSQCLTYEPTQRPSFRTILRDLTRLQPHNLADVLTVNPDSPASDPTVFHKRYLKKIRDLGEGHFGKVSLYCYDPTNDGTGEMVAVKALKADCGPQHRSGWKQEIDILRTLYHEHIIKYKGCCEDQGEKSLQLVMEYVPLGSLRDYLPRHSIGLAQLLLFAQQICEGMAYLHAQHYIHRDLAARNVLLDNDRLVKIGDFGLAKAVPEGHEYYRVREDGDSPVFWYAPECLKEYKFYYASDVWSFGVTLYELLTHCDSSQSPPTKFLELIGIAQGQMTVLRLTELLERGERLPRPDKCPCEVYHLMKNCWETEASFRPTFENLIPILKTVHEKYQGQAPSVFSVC
Outline: as §1

[2] = Colon and plasma mouse pharmacokinetics; format: in vivo; conditions: male Balb/c mice, 10 mg/kg PO, ratio of the colon AUC to the plasma AUC; for Kp: mouse, colon tissue / plasma
Description: Assay 5: Colon and Plasma Mouse Pharmacokinetics
To 6 male Balb/c mice was administered 10 mg/kg of compound in 1% HPMC+0.1% Tween-80 by PO administration. At 0.5, 2 and 6 hours after dose administration, animals were anesthetized, and terminal blood samples were collected by cardiac puncture, followed by collection of colon contents and colon tissue.
Blood samples were collected into K2EDTA and stored on wet ice until processed to plasma by centrifugation (12000 rpm at 4° C.). Plasma samples were transferred to cluster tubes and placed on dry ice prior to freezer storage. The colon contents from each animal were collected at each terminal blood collection time point. The colon tissues were flushed with saline and patted dry. The colon and colon content tissues were homogenized using sterile water containing 0.1% formic acid 9:1 (water:tissue, v/w). The homogenized tissues and colon contents were transferred to cluster tubes and placed on dry ice prior to freezer storage. All samples were analyzed using LC/MS/MS against analytical standards.
The composite pharmacokinetic parameters of the compounds were determined by non-compartmental analysis using Phoenix WinNonlin Version 6 (Certara, St. Louis, Mo.) and using mean values from 2 animals/time point. For plasma concentrations below the quantification limit (BQL), the lowest concentration measurable or the BLOQ (below limit of quantification) was used.
A colon to plasma ratio was determined as the ratio of the colon AUC to the plasma AUC.

JAK3 = JAK3 (Homo sapiens (Human), UniProt P52333); assay: Biochemical JAK3 kinase assay (LanthaScreen); conditions: for JAK3 (pKi)-JAK1 (pKi): selectivity JAK3 over JAK1, difference of pKi
Sequence of JAK3 (P52333 whole entry): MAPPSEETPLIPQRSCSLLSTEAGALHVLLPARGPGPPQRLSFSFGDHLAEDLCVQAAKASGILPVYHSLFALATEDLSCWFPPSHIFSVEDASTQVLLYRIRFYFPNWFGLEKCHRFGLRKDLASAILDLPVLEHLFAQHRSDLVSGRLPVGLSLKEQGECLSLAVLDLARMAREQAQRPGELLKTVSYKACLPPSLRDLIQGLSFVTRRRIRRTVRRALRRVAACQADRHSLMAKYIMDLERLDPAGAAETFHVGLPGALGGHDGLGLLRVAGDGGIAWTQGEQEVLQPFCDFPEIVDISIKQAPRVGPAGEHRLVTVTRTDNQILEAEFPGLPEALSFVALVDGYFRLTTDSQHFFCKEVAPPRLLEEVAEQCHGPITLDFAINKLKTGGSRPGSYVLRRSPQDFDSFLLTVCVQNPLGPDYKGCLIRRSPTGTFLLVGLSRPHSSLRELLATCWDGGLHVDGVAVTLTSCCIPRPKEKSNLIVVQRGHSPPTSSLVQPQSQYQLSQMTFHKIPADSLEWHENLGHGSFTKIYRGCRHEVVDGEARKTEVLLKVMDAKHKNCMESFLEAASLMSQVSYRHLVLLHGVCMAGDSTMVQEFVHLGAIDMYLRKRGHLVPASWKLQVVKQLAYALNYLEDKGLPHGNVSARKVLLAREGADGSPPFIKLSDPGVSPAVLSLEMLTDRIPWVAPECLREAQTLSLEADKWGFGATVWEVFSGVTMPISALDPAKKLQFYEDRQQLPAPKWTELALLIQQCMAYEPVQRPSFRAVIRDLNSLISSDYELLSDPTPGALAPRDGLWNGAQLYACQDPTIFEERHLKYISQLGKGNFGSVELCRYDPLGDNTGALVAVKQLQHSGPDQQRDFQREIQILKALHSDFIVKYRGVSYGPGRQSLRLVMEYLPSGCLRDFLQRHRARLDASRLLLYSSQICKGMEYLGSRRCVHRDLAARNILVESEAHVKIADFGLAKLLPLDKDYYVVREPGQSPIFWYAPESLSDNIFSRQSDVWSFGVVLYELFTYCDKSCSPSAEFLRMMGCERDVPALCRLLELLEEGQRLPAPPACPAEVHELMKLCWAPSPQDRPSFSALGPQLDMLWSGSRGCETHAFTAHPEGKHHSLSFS
Outline: as §1

JAK2 = JAK2 (Homo sapiens (Human), UniProt O60674); assay: Biochemical JAK2 kinase assay (LanthaScreen)
Sequence of JAK2 (O60674 whole entry): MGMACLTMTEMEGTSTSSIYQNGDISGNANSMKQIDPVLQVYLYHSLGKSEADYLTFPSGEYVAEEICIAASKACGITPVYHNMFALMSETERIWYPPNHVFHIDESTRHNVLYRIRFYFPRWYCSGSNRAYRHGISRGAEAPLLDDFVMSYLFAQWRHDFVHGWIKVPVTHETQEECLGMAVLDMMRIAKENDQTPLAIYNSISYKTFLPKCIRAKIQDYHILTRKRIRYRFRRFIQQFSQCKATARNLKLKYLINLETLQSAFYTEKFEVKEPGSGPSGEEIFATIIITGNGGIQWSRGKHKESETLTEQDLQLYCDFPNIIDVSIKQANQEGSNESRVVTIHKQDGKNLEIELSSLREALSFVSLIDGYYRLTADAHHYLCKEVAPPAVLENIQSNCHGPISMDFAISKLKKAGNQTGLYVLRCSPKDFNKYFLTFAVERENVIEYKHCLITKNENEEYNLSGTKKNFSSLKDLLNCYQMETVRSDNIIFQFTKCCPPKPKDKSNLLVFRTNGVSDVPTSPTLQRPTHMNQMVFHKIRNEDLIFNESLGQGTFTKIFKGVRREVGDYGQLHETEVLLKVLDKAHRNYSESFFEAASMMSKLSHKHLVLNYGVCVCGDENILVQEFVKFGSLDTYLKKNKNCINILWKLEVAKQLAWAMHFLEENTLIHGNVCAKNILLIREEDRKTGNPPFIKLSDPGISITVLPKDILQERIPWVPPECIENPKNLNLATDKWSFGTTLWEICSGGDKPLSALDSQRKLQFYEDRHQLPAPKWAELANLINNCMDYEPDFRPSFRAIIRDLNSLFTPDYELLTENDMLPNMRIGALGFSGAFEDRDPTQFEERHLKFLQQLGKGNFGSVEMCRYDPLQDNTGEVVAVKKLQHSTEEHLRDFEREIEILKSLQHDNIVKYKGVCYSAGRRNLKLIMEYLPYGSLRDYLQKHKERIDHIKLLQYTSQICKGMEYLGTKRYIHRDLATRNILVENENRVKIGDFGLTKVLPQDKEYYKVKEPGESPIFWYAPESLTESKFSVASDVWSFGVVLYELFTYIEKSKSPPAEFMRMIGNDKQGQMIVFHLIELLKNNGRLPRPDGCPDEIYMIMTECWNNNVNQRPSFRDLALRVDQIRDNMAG
Outline: as §1

Sequence of JAK1 (P23458 whole entry): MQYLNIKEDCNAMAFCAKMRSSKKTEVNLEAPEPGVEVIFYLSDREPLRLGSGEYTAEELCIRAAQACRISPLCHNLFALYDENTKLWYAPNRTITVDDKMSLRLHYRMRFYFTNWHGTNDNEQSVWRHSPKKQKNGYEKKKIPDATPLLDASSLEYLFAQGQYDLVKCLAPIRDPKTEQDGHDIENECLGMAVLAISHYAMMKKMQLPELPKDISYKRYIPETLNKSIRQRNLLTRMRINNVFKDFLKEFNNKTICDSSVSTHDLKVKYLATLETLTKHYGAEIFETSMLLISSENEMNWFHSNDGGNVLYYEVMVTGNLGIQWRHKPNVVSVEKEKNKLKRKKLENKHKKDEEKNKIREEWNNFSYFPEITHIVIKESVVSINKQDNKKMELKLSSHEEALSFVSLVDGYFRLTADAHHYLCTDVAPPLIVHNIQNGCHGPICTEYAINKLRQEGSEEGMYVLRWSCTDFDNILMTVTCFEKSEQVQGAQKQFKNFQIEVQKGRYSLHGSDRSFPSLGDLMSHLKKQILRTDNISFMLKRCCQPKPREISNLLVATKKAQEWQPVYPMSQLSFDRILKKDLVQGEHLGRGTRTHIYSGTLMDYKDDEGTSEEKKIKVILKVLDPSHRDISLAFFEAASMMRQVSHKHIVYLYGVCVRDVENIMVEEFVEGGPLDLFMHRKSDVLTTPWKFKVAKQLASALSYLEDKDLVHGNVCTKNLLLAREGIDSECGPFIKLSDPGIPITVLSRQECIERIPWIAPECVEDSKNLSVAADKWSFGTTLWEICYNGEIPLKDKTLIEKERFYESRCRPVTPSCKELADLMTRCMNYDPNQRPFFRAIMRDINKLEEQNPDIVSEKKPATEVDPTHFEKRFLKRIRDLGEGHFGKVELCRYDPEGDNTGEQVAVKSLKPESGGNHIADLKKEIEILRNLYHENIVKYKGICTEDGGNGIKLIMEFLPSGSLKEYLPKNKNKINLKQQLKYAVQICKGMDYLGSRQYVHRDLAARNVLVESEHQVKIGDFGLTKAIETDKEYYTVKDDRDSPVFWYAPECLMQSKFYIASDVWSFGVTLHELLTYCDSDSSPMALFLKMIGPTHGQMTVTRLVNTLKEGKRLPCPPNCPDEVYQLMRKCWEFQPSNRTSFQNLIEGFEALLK

| Compound | JAK 1 (pKi) (JAK1) | Tall-1 (pIC50) [1] | Caco Kp (Caco-2 cell monolayers) | Tyk 2 (pKi) (Tyk2) | Kp [2] | JAK 3 (pKi) (JAK3) | JAK3 (pKi)-JAK1 (pKi) (JAK3) | JAK 2 (pKi) (JAK2) | colon to plasma ratio [2] |
| --- | --- | --- | --- | --- | --- | --- | --- | --- | --- |
| C=CC(=O)N1CC(CCn2c(=O)ccc3cnc(Nc4ccc(N5CCN(C(=O)CCSC)CC5)cc4)nc32)C1 [Example 3, 8-(2-(1-acryloylazetidin-3-yl)ethyl)-2-((4-(4-(3-(methylthio)propanoyl)piperazin-1-yl)phenyl)amino)pyrido[2,3-d]pyrimidin-7(8H)-one] | E (E represents a pKi value of 7 or below (Ki of 100 nM or above)) | B (B represents a pC50 value between 6.7 (included) and 7.5 (IC50 between 200 nM and 32 nM)) | A (A represents a value below 5×10^−6 cm/sec) | E (E represents a pKi value of 7 or below (Ki of 100 nM or above)) | > 1000 | A (A represents a pKi value≥10 (Ki≤0.1 nM)) | A (A represents a value of 3 or above) | E (E represents a pKi value of 7 or below (Ki of 100 nM or above)) | – |
| C=CC(=O)N1CC(CCn2c(=O)ccc3cnc(Nc4ccc(CN5CCOCC5)cc4)nc32)C1 [Example 44] | E (E represents a pKi value of 7 or below (Ki of 100 nM or above)) | B (B represents a pC50 value between 6.7 (included) and 7.5 (IC50 between 200 nM and 32 nM)) | – | E (E represents a pKi value of 7 or below (Ki of 100 nM or above)) | > 50 | B (B represents pKi value between 9 and 10 (Ki between 1 nM and 0.1 nM)) | A (A represents a value of 3 or above) | E (E represents a pKi value of 7 or below (Ki of 100 nM or above)) | – |
| C=CC(=O)N1CC(C(C)Cn2c(=O)ccc3cnc(Nc4ccc(N5CCN(C(C)=O)CC5)cc4)nc32)C1 (stereo not shown) [Example 156] | E (E represents a pKi value of 7 or below (Ki of 100 nM or above)) | B (B represents a pC50 value between 6.7 (included) and 7.5 (IC50 between 200 nM and 32 nM)) | – | E (E represents a pKi value of 7 or below (Ki of 100 nM or above)) | > 14 | B (B represents pKi value between 9 and 10 (Ki between 1 nM and 0.1 nM)) | A (A represents a value of 3 or above) | E (E represents a pKi value of 7 or below (Ki of 100 nM or above)) | – |
| C=CC(=O)N1CCN(CCn2c(=O)ccc3cnc(Nc4cnn(CCF)c4)nc32)[C@@H](CC)C1 [Example 202] | E (E represents a pKi value of 7 or below (Ki of 100 nM or above)) | B (B represents a pC50 value between 6.7 (included) and 7.5 (IC50 between 200 nM and 32 nM)) | A (A represents a value below 5×10^−6 cm/sec) | E (E represents a pKi value of 7 or below (Ki of 100 nM or above)) | – | B (B represents pKi value between 9 and 10 (Ki between 1 nM and 0.1 nM)) | A (A represents a value of 3 or above) | E (E represents a pKi value of 7 or below (Ki of 100 nM or above)) | – |
| C=CC(=O)N1CCN(CCn2c(=O)ccc3cnc(Nc4cnn(C(C)(C)COC)c4)nc32)[C@@H](CC)C1 [Example 203] | E (E represents a pKi value of 7 or below (Ki of 100 nM or above)) | B (B represents a pC50 value between 6.7 (included) and 7.5 (IC50 between 200 nM and 32 nM)) | C (C represents a value between 10×10^−6 and 30×10^−6 cm/sec) | E (E represents a pKi value of 7 or below (Ki of 100 nM or above)) | – | B (B represents pKi value between 9 and 10 (Ki between 1 nM and 0.1 nM)) | A (A represents a value of 3 or above) | E (E represents a pKi value of 7 or below (Ki of 100 nM or above)) | – |
| C=CC(=O)N1CCN(CCn2c(=O)ccc3cnc(Nc4ccc(N5CCN(C(C)C)CC5)cc4)nc32)CC1 [Example 205] | E (E represents a pKi value of 7 or below (Ki of 100 nM or above)) | A (A represents a pIC50 value≥7.5 (IC50≤32 nM)) | B (B represents a value between 5×10^−6 and 10×10^−6 cm/sec) | E (E represents a pKi value of 7 or below (Ki of 100 nM or above)) | – | B (B represents pKi value between 9 and 10 (Ki between 1 nM and 0.1 nM)) | A (A represents a value of 3 or above) | E (E represents a pKi value of 7 or below (Ki of 100 nM or above)) | – |
| C=CC(=O)N1CCN(CCn2c(=O)ccc3cnc(Nc4ccc(N5CCN(C(C)CC)CC5)cc4)nc32)CC1 (stereo not shown) [Example 206] | E (E represents a pKi value of 7 or below (Ki of 100 nM or above)) | A (A represents a pIC50 value≥7.5 (IC50≤32 nM)) | C (C represents a value between 10×10^−6 and 30×10^−6 cm/sec) | E (E represents a pKi value of 7 or below (Ki of 100 nM or above)) | – | A (A represents a pKi value≥10 (Ki≤0.1 nM)) | A (A represents a value of 3 or above) | E (E represents a pKi value of 7 or below (Ki of 100 nM or above)) | – |
| C=CC(=O)N1CCN(CCn2c(=O)ccc3cnc(Nc4ccc(N5CCN(CCCOC)CC5)cc4)nc32)CC1 [Example 207] | E (E represents a pKi value of 7 or below (Ki of 100 nM or above)) | B (B represents a pC50 value between 6.7 (included) and 7.5 (IC50 between 200 nM and 32 nM)) | B (B represents a value between 5×10^−6 and 10×10^−6 cm/sec) | E (E represents a pKi value of 7 or below (Ki of 100 nM or above)) | – | B (B represents pKi value between 9 and 10 (Ki between 1 nM and 0.1 nM)) | A (A represents a value of 3 or above) | E (E represents a pKi value of 7 or below (Ki of 100 nM or above)) | – |
| C=CC(=O)N1CCN(CCn2c(=O)ccc3cnc(Nc4ccc(N5CCN(CCOC)CC5)cc4)nc32)CC1 [Example 208] | E (E represents a pKi value of 7 or below (Ki of 100 nM or above)) | B (B represents a pC50 value between 6.7 (included) and 7.5 (IC50 between 200 nM and 32 nM)) | B (B represents a value between 5×10^−6 and 10×10^−6 cm/sec) | E (E represents a pKi value of 7 or below (Ki of 100 nM or above)) | – | B (B represents pKi value between 9 and 10 (Ki between 1 nM and 0.1 nM)) | A (A represents a value of 3 or above) | E (E represents a pKi value of 7 or below (Ki of 100 nM or above)) | – |
| C=CC(=O)N1CCN(CCn2c(=O)ccc3cnc(Nc4cnn(CC(F)F)c4)nc32)[C@@H](CC)C1 [Example 209] | E (E represents a pKi value of 7 or below (Ki of 100 nM or above)) | B (B represents a pC50 value between 6.7 (included) and 7.5 (IC50 between 200 nM and 32 nM)) | A (A represents a value below 5×10^−6 cm/sec) | E (E represents a pKi value of 7 or below (Ki of 100 nM or above)) | – | B (B represents pKi value between 9 and 10 (Ki between 1 nM and 0.1 nM)) | A (A represents a value of 3 or above) | E (E represents a pKi value of 7 or below (Ki of 100 nM or above)) | – |
| C=CC(=O)N1CC(CCn2c(=O)ccc3cnc(Nc4cnn(C5CCN(C(=O)CSC)CC5)c4)nc32)C1 [Example 210] | E (E represents a pKi value of 7 or below (Ki of 100 nM or above)) | B (B represents a pC50 value between 6.7 (included) and 7.5 (IC50 between 200 nM and 32 nM)) | A (A represents a value below 5×10^−6 cm/sec) | E (E represents a pKi value of 7 or below (Ki of 100 nM or above)) | – | A (A represents a pKi value≥10 (Ki≤0.1 nM)) | A (A represents a value of 3 or above) | E (E represents a pKi value of 7 or below (Ki of 100 nM or above)) | – |
| C=CC(=O)N1C[C@H](Nc2ncnc3[nH]ccc23)CC[C@@H]1C [PF-06651600, 2-propen-1-one, 1-[(2S,5R)-2-methyl-5-(7-pyrrolo[2,3-d]pyrimidin-4-ylamino)-1-piperidinyl], reference compound] | – | – | – | – | – | – | – | – | 2.8 |
